Laboratory results: the supplement of paper PMC11579375

Key:
Experiment in all cases: area under the viability dose-response curve (AUC) (AUC (arbitrary units, max 500 = no viability loss)); higher = less sensitive (higher viability)
Conditions in all cases: exposure time: 120 h; concentration range: 0.1 nM - 10 µM, 6 doses
96F1 = test system: 96F1 (fetal-I hepatoblastoma organoid with intermediate liver markers)
Procedure: (§1)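 Patient-derived hepatoblastoma tumor organoids (about 50 organoids per well, 384-well plates, medium with 5% BME) were treated with the PMC pediatric cancer drug library. Each drug was tested in duplicate at 6 concentrations (0.1 nM to 10 µM, 10-fold steps).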

10F2 = test system: 10F2 (fetal-II hepatoblastoma organoid with high liver markers)
Procedure: as §1

8F1 = test system: 8F1 (fetal-I hepatoblastoma organoid with intermediate liver markers)
Procedure: as §1

17E = test system: 17E (embryonal-type hepatoblastoma organoid)
Procedure: as §1

17F1 = test system: 17F1 (fetal-I hepatoblastoma organoid with intermediate liver markers)
Procedure: as §1

135F2 = test system: 135F2 (fetal-II hepatoblastoma organoid with high liver markers)
Procedure: as §1

22E = test system: 22E (embryonal-type hepatoblastoma organoid)
Procedure: as §1

13E = test system: 13E (embryonal-type hepatoblastoma organoid)
Procedure: as §1

13F2 = test system: 13F2 (fetal-II hepatoblastoma organoid with high liver markers)
Procedure: as §1

3E = test system: 3E (embryonal-type hepatoblastoma organoid)
Procedure: as §1

27F1 = test system: 27F1 (fetal-I hepatoblastoma organoid with intermediate liver markers)
Procedure: as §1

SMILES	area under the viability dose-response curve (96F1)	area under the viability dose-response curve (10F2)	area under the viability dose-response curve (8F1)	area under the viability dose-response curve (17E)	area under the viability dose-response curve (17F1)	area under the viability dose-response curve (135F2)	area under the viability dose-response curve (22E)	area under the viability dose-response curve (13E)	area under the viability dose-response curve (13F2)	area under the viability dose-response curve (3E)	area under the viability dose-response curve (27F1)
C[C@@H]1COCCN1c1cc(=O)n2c(n1)N(Cc1cncc(Cl)c1)[C@H](C(F)(F)F)CC2 [SAR405]	> 500	> 500	489	496	> 500	490	474	497	467	479	454
CC[C@]1(O)C[C@H]2CN(CCc3c([nH]c4ccccc34)[C@@](C(=O)OC)(c3cc4c(cc3OC)N(C=O)[C@H]3[C@@](O)(C(=O)OC)[C@H](OC(C)=O)[C@]5(CC)C=CCN6CC[C@]43[C@@H]65)C2)C1 [Vincristine]	196	188	243	181	180	209	193	174	222	125	218
COc1ccc(Cn2ccc3ccc(C(=O)NO)cc32)cc1	487	454	474	475	484	488	452	490	472	452	483
CC[C@@H]1C(=O)N(C)c2cnc(Nc3ccc(C(=O)N[C@H]4CC[C@H](N5CCN(CC6CC6)CC5)CC4)cc3OC)nc2N1C(C)C [Volasertib]	281	227	351	249	331	257	326	263	278	278	255
FC(F)(F)c1ccc(/C=C/c2nc(COc3ccc(CCCCn4ccnn4)cc3)co2)cc1 [Mubritinib]	269	438	263	419	245	334	449	339	264	429	335
C[C@@H]1CN(C(=O)c2ccc(NC(=O)c3cc(O[C@H](C)c4c(Cl)ccc(F)c4Cl)c(N)nn3)cc2)C[C@H](C)N1 [Ensartinib]	456	449	444	411	483	449	393	422	410	403	468
C=CCn1c(=O)c2cnc(Nc3ccc(N4CCN(C)CC4)cc3)nc2n1-c1cccc(C(C)(C)O)n1 [Adavosertib]	361	328	438	336	383	353	423	404	354	335	386
COc1ccc([C@@H](O)c2cc(-c3ncnc4cc(N5CCOCC5)ccc34)c(F)cc2Cl)nn1 [Nedisertib]	462	404	479	409	486	463	462	453	394	435	493
Nc1ncccc1-c1nc2ccc(-c3ccccc3)nc2n1-c1ccc(C2(N)CCC2)cc1 [Miransertib]	433	446	428	365	494	429	387	421	422	338	447
CN1CCN(c2ccc(C(=O)Nc3n[nH]c4ccc(Cc5cc(F)cc(F)c5)cc34)c(NC3CCOCC3)c2)CC1 [Entrectinib]	454	399	460	404	448	438	429	418	418	424	484
CCNC(=O)C[C@@H]1N=C(c2ccc(Cl)cc2)c2cc(OC)ccc2-n2c(C)nnc21 [Molibresib]	497	386	465	400	477	417	442	468	389	378	498
Cc1ccc(C(=O)Nc2ccc(Oc3cc4cnn(C)c4cc3-c3cn[nH]c3)c(F)c2)c(=O)n1-c1ccc(F)cc1 [Merestinib]	> 500	432	484	486	> 500	487	464	463	466	452	> 500
CN[C@@H](C)C(=O)N[C@H](C(=O)N1CCC[C@H]1C(=O)N[C@H]1c2ccccc2C[C@H]1OCC#CC#CCO[C@@H]1Cc2ccccc2[C@@H]1NC(=O)[C@@H]1CCCN1C(=O)[C@@H](NC(=O)[C@H](C)NC)C1CCCCC1)C1CCCCC1 [AZD5582]	458	321	414	473	446	483	82.8	424	470	148	394
Cc1cc(-c2ncc(CC(=O)Nc3ccc(-c4cnccn4)cn3)cc2C)ccn1 [LGK974]	491	474	489	475	497	499	494	497	477	> 500	492
CO[C@H]1C[C@@H]2CC[C@@H](C)[C@@](O)(O2)C(=O)C(=O)N2CCCC[C@H]2C(=O)O[C@H]([C@H](C)C[C@@H]2CC[C@@H](OC(=O)C(C)(CO)CO)[C@H](OC)C2)CC(=O)[C@H](C)/C=C(\C)[C@@H](O)[C@@H](OC)C(=O)[C@H](C)C[C@H](C)/C=C/C=C/C=C/1C [Temsirolimus]	496	339	493	341	471	469	406	373	342	280	475
CCn1cc(-c2ccnc3[nH]c(-c4cccc(CN(C)C)c4)cc23)c(-c2ccc(NC(=O)N(C)C)cc2)n1	413	307	458	297	477	370	408	382	298	322	387

SMILES	area under the viability dose-response curve (96F1)	area under the viability dose-response curve (10F2)	area under the viability dose-response curve (8F1)	area under the viability dose-response curve (17E)	area under the viability dose-response curve (17F1)	area under the viability dose-response curve (135F2)	area under the viability dose-response curve (22E)	area under the viability dose-response curve (13E)	area under the viability dose-response curve (13F2)	area under the viability dose-response curve (3E)	area under the viability dose-response curve (27F1)
Nc1cc(F)ccc1NC(=O)c1ccc(CNC(=O)/C=C/c2cccnc2)cc1 [Epidaza]	492	395	> 500	437	467	444	461	448	426	466	482
Nc1ccn([C@@H]2O[C@H](CO)[C@@H](O)[C@@H]2O)c(=O)n1 [Cytarabine]	378	481	479	425	393	403	433	425	377	370	427
CC(=O)O[C@H]1C(=O)[C@@]2(C)[C@H]([C@H](OC(=O)c3ccccc3)[C@]3(O)C[C@H](OC(=O)[C@H](O)[C@@H](NC(=O)c4ccccc4)c4ccccc4)C(C)=C1C3(C)C)[C@]1(OC(C)=O)CO[C@@H]1C[C@@H]2O [Paclitaxel]	179	179	312	174	222	211	229	196	215	145	250
CC(=O)O[C@@]12CO[C@@H]1C[C@H](O)[C@@]1(C)C(=O)[C@H](O)C3=C(C)[C@@H](OC(=O)[C@H](O)[C@@H](NC(=O)OC(C)(C)C)c4ccccc4)C[C@@](O)([C@@H](OC(=O)c4ccccc4)[C@H]21)C3(C)C [Docetaxel]	203	134	401	175	255	195	248	179	171	101	267
CNC(=O)c1ccc(Nc2ncc(C(F)(F)F)c(NCc3nccnc3N(C)S(C)(=O)=O)n2)cc1 [Defactinib]	443	465	466	449	466	454	469	443	442	454	455
CN1CCN(c2ccc3nc(-c4c(N)c5c(F)cccc5[nH]c4=O)[nH]c3c2)CC1 [Dovitinib]	433	418	499	390	468	455	412	417	400	396	477
COc1cc2c(Oc3ccc4[nH]c(C)cc4c3F)ncnc2cc1OCCCN1CCCC1 [Cediranib]	454	430	> 500	425	459	438	414	428	402	390	431
CN[C@@H](C)C(=O)N[C@H]1CN(C(=O)CC(C)C)CC[C@H]2CC[C@@H](C(=O)NC(c3ccccc3)c3ccccc3)N2C1=O [Xevinapant]	> 500	445	496	454	489	> 500	301	484	498	351	> 500
O=C(NOC[C@H](O)CO)c1ccc(F)c(F)c1Nc1ccc(I)cc1F	461	262	> 500	471	480	376	481	490	325	488	447
CNCc1ccc(-c2cc(-c3nc(-c4ccc(S(=O)(=O)C(C)C)cc4)cnc3N)on2)cc1 [Berzosertib]	459	411	499	444	> 500	391	473	461	401	391	498
CC(C)(O)CNc1nc(Nc2ccnc(C(F)(F)F)c2)nc(-c2cccc(C(F)(F)F)n2)n1 [Enasidenib]	> 500	> 500	> 500	> 500	> 500	> 500	> 500	> 500	> 500	> 500	> 500
COCCNCc1ccc(-c2cc3nccc(Oc4ccc(NC(=O)C5(C(=O)Nc6ccc(F)cc6)CC5)cc4F)c3s2)nc1 [Sitravatinib]	433	374	441	375	457	432	431	436	425	417	442
CN(C)C/C=C/C(=O)Nc1ccc(C(=O)Nc2cccc(Nc3ncc(Cl)c(-c4c[nH]c5ccccc45)n3)c2)cc1 [THZ1]	343	256	410	281	371	314	241	291	276	223	435
CC(C)(C)c1nc(-c2cccc(NS(=O)(=O)c3c(F)cccc3F)c2F)c(-c2ccnc(N)n2)s1 [Dabrafenib]	456	422	> 500	494	> 500	471	486	497	411	491	497
COc1cccc2c1C(=O)c1c(O)c3c(c(O)c1C2=O)C[C@@](O)(C(=O)CO)C[C@@H]3O[C@H]1C[C@H](N)[C@H](O)[C@H](C)O1 [Doxorubicin]	311	281	384	278	311	308	336	305	258	263	333
